Measured values as given in patent US5204471A, “α-trifluoromethyl-substituted, saturated bicyclic amines” (Bayer Aktiengesellschaft, priority 1991, dated 1993).

What was measured:
HIV = HIV test in a cell culture (syncytia formation in infected PBLs); assay type: cell-based; settings: Human immunodeficiency virus 1, Lymphocyte, 72 h; HIV-infected normal human blood lymphocytes (PBLs), evaluated day 3 to 6 after infection; read-out: IC50 value (PBL), 50% suppression of virus-induced syncytia
Description: HIV test in a cell culture with slight modifications according to Pauwels et al., Journal of Virological Methods 20, pages 309-321 (1988).
Normal human blood lymphocytes (PBLs) were concentrated via Ficoll-Hypaque and stimulated with phytohaemagglutinin (90 μg/ml) and interleukin-2 (40 U/ml) in RPMI 1640, 20% fetal calf serum. For infection with the infectious HIV, the PBLs were pelletised, and the cell pellet was then suspended in 1 ml of HIV virus adsorption solution and incubated at 37° C. for 1 hour.
The virus adsorption solution was centrifuged, and the infected cell pellet was taken up in growth medium in such a manner that 1×10^5 cells were present per ml. The cells infected in this manner were pipetted into the wells of 96-well microtitre plates in such a manner that each well contained 1×10^4 cells.
The first vertical row of the microtitre plate only contained growth medium and cells which were not infected but otherwise had been treated in the same manner as described above (cell control). The second vertical row of the microtitre plate only contained HIV-infected cells (virus control) in growth medium. […]
The test batches were incubated at 37° C. until the formation of syncytia typical for HIV occurred in the untreated virus control (between day 3 and 6 after infection), which formation was then evaluated under a microscope. […]

HIV protease = target: T1, HIV protease (Human immunodeficiency virus type 1 group M subtype B, UniProt P04585); assay: HIV-specific protease enzyme test (cleavage of synthetic Gag peptide, RP HPLC); assay type: biochemical; settings: purified HIV protease, HIV-1, synthetic peptide substrate; read-out: IC50 value (concentration causing 50% inhibition of the protease activity)
T1 construct: purified HIV protease
Description: HIV-specific protease enzyme test according to J. Hansen, S. Billich, T. Schulze, S. Sukrow and K. Molling, EMBO Journal, Vol. 7, No. 6, pages […] (1988).
This test was carried out by incubation of purified HIV protease with synthetic peptide which imitates a cleavage site in the Gag precursor protein and represents an in vivo cleavage point of the HIV protease. The resulting cleavage products of the synthetic peptide were analysed by reversed-phase high performance liquid chromatography (RP HPLC). The compound obtained according to Example 11 gave an IC50 value of 5×10^-8 with HIV-1. The IC50 value indicates the concentration of the substance causing 50% inhibition of the protease activity under the test conditions.

CC(C)[C@H](NC(=O)[C@H](Cc1cccc2ccccc12)CS(=O)(=O)C(C)(C)C)C(=O)N[C@@H](Cc1ccccc1)C(O)CN1CCC2CCCCC2C1C(F)(F)F (some centres unmarked) [Example 11]
IC50 (HIV): 2.5 µM | IC50 (HIV protease): 0.05 µM
